Legend:
iCell cardiomyocytes = test: CellTiter-Glo protection from 400 μM H2O2; type: cell-based; conditions: Homo sapiens, Cardiomyocyte, read-out: EC50 in iCell cardiomyocytes (protecting hiPSC-CMs)
Method: iCell cardiomyocytes were thawed, transferred to Plating Medium, counted using a Vi-CELL XR cell viability analyzer (Beckman Coulter), and seeded into 24-well plates for RNA collection (60,000 cells well^-1; Greiner) or μClear half-area 96-well plates for gene silencing (10,000 cells well^-1; Greiner). Plates were coated with 10 μg ml^-1 collagen type I (BD Biosciences). Cells were cultured in iCell Cardiomyocytes Plating Medium for 2 d and in Maintenance Medium thereafter. For compound dose-response comparisons, the cells were deposited in Plating Medium at 10,000 cells well^-1 in 0.1% (w/v) gelatin-coated 384-well white Greiner plates and were cultured as above for 8 d before treatment.
For cell-based dose-response experiments, MAP4K4 inhibitors were prepared in 96-well polypropylene plates as serial dilutions in DMSO of 10 mM stock solutions. […]
Assay plates were removed from the incubator, allowed to reach room temperature, inoculated with 20 μl well^-1 CTG reagent (Promega), and gently agitated for 30 min. […] Luminescence due to ATP, proportional to cell number, was captured on a PHERAstar Plus microplate reader (BMG Labtech). […]

Cerep Safety 44 panel = Cerep Safety 44 panel (SafetyScreen44); type: binding; conditions: except metallothionein 3
vCor.4U hiPSC-CMs = test: Calcium transients (FLIPR Tetra, EarlyTox Cardiotoxicity dye); type: cell-based, human
Method: Calcium transients in hiPSC-CMs were assessed using FLIPR Tetra instrumentation and Early Tox Cardiotoxicity kits (Molecular Devices). vCor.4U cells were subjected to graded concentrations of menadione and the MAP4K4 inhibitors as described for the viability assays. Compound concentrations and time course are denoted in the figure and figure legend. Vehicle controls were used throughout. Cells were incubated for 2-3 hr at 37°C in 5% CO2, using 3 μL well^-1 of EarlyTox Cardiotoxicity Kit concentrate as the fluorescent calcium indicator dye. Plates were then removed from the incubator and allowed to reach room temperature. Intracellular calcium oscillations were monitored using a FLIPR Tetra system with excitation LED bank 470-495 nm and emission filter set 515-575 nm (Molecular Devices). Fluorescence intensity signals were acquired for 600 reads at 1.2 ms intervals. Beat frequency, median peak height, median peak width and total peak area were calculated and compared with the baseline control and with menadione alone. Protection of calcium cycling by DMX-4804 was confirmed in 3 independent experiments with overlapping conditions, and results are shown for a full dose-response study, analyzing 4 wells for each point.

[1] = IV PK (plasma concentrations after intravenous administration); type: in vivo, mice; conditions: IV PK (1 mg kg^−1); for Cmax / Vd / clearance / half-life: mouse, mice, plasma
infarct size = test: Myocardial infarction (ischemia-reperfusion), infarct size by TTC/Evans blue; type: in vivo, CD-1 female mice; conditions: 50 mg kg^−1 twice by gavage 10 h apart
[2] = Glutathione (GSH)-trapping; type: in vitro ADME
MINK1/MAP4K6 = MINK1/MAP4K6 (Homo sapiens, UniProt Q8N4C8); test: HTRF Transcreener ADP kinase assay; type: biochemical
Chain of MINK1/MAP4K6 (Q8N4C8 whole entry): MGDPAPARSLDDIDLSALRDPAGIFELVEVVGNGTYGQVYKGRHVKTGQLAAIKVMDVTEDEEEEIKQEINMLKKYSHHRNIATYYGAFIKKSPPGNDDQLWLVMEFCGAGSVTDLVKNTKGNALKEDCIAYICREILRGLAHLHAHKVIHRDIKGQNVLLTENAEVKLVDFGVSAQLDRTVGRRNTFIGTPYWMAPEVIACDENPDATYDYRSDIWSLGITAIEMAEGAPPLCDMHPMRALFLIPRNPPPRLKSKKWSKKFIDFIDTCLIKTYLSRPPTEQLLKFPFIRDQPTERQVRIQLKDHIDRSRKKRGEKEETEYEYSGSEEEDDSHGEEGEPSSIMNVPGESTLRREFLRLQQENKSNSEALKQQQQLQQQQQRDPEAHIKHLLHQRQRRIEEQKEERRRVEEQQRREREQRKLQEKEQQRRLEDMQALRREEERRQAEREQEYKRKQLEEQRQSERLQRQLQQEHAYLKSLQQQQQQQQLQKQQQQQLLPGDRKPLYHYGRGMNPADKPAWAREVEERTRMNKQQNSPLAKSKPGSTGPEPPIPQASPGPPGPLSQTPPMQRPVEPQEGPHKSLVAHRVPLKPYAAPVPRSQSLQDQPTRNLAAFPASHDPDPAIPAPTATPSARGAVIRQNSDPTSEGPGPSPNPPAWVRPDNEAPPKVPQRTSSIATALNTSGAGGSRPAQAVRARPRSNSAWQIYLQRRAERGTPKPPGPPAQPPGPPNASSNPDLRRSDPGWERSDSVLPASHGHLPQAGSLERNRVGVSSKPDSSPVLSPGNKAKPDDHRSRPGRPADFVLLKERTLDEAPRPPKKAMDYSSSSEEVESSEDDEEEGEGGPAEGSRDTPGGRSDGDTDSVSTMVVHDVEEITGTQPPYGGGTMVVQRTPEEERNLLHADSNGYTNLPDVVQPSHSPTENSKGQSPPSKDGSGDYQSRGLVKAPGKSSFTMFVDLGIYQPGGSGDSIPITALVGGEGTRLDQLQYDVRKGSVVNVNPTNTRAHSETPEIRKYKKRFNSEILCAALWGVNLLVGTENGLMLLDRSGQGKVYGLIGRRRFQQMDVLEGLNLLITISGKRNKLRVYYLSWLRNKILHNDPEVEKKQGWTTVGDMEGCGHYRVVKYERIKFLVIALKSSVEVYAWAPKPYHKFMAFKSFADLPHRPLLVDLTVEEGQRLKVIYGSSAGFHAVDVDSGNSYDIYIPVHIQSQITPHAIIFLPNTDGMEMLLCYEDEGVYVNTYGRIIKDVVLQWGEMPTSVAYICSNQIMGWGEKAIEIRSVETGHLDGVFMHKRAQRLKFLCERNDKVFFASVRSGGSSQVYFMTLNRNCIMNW
Method: (§1) In the detection step, endogenous ADP and d2-labeled ADP compete for binding an anti-ADP monoclonal antibody labeled with Eu^3+ cryptate. A ratiometric fluorescent readout is used at 665 and 620 nm. […] Assays were run in Greiner low volume plates with a final reaction volume of 10 μl. […] Data were either reported as % inhibition at a single dose or as pIC50 values derived from dose response curves (pIC50 = -log[IC50]). Kinase selectivity profiling was performed by the International Centre for Kinase Profiling, MRC Protein Phosphorylation and Ubiquitylation Unit (141 kinases; Premier Screen, http://www.kinase-screen.mrc.ac.uk), using a [γ-^33P]ATP filter binding assay ([Bain et al., 2007]). Compounds were screened at 1 μM. For key hits, pIC50 values were then determined by HTRF as above. […] Stability in mouse and human liver microsomes was determined by Cyprotex.

TNIK/MAP4K7 = TNIK/MAP4K7 (Homo sapiens, UniProt Q9UKE5); test: HTRF Transcreener ADP kinase assay; type: biochemical
Chain of TNIK/MAP4K7 (Q9UKE5 whole entry): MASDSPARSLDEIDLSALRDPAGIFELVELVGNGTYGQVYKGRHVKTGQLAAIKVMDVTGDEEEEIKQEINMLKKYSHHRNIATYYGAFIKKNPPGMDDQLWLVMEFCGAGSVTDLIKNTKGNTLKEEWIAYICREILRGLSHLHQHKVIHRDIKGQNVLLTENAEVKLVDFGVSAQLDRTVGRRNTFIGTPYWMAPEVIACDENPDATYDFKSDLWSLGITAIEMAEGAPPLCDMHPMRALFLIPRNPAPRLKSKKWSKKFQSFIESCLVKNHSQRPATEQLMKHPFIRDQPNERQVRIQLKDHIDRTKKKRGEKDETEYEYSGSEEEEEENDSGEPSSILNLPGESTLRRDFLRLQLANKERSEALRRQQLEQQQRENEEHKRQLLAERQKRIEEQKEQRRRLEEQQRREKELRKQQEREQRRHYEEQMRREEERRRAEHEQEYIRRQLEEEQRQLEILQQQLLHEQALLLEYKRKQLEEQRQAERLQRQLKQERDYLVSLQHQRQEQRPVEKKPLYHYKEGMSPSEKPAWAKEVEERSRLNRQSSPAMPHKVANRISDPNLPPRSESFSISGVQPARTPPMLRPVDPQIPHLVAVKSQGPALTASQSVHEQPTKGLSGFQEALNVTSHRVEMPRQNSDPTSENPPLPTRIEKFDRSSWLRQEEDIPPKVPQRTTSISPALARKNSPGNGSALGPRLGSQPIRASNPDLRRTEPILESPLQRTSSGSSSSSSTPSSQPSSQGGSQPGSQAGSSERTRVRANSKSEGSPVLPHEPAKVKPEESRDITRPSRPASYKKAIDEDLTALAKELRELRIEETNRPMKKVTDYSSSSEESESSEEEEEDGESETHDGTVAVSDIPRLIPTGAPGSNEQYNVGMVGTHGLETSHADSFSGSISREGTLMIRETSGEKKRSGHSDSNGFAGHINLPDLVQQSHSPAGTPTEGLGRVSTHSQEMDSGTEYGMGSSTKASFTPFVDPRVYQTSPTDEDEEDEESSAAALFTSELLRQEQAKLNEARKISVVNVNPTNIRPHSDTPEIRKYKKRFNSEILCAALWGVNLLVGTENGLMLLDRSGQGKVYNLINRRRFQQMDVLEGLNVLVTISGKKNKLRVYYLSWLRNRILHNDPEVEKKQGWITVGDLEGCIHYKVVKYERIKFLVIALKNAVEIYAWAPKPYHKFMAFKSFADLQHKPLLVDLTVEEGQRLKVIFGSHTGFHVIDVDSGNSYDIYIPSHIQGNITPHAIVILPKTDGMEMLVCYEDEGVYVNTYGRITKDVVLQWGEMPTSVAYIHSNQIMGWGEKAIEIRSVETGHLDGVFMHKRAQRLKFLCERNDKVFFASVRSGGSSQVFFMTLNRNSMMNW
Method: as §1

endogenous MAP4K4 = target: T1, endogenous MAP4K4 (Homo sapiens, UniProt O95819); test: In-cell MAP4K4 activity, immune complex kinase assay in HEK293T cells; type: cell-based; conditions: HEK-293T, 1 h after treatment
T1 construct: endogenous in cells; host or cells: HEK293T
T1 sequence (O95819 whole entry): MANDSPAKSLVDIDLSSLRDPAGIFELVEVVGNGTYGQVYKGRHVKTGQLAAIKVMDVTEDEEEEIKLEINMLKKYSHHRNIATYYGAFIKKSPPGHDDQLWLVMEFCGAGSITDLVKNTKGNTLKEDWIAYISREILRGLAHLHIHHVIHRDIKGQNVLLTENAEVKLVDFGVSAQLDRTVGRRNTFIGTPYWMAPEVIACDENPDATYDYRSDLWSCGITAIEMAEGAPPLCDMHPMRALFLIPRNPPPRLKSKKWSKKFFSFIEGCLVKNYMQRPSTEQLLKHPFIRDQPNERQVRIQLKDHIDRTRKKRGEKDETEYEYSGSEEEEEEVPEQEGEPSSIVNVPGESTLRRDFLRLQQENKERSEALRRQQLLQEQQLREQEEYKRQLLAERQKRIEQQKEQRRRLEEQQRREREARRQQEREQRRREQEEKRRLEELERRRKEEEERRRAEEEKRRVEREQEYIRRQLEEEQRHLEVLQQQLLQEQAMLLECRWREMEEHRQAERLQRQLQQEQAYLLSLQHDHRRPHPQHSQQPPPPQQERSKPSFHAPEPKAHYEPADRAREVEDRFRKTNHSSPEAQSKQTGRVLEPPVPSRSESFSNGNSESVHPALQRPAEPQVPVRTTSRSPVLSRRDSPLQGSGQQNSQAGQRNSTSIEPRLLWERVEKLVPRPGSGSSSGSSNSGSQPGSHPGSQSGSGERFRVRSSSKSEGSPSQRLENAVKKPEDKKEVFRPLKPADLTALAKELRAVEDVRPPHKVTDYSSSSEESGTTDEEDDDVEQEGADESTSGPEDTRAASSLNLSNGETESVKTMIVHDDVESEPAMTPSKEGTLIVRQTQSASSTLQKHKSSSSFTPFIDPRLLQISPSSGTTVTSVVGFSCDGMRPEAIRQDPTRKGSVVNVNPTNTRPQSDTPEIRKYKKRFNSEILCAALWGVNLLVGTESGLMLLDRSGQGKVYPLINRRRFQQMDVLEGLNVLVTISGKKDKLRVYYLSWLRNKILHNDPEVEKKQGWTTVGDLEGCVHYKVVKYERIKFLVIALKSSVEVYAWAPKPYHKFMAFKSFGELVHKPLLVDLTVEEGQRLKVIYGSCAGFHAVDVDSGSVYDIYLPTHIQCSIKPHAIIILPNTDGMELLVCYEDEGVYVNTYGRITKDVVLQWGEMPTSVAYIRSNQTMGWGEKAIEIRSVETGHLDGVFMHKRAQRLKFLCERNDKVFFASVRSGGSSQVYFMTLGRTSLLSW
Method: MAP4K4 was precipitated using M2 antibody to the FLAG epitope, or antibody to endogenous MAP4K4, and protein G-Sepharose. Precipitates were washed twice in lysis buffer, twice with 500 mM LiCl, 100 mM Tris-HCl, pH 7.6, 0.1% Triton X-100, twice with kinase buffer (20 mM MOPS, pH 7.6, 2 mM EGTA, 10 mM MgCl2, 1 mM dithiothreitol, 0.1% Triton X-100, 1 mM Na3VO4), and were then mixed with 10 μg of myelin basic protein (Invitrogen) as substrate, 15 μM ATP, and 10 μCi [γ-^32P]ATP in […] of kinase buffer for 30 min at 30°C ([Yao et al., 1999]). His-MKK6 was used as the substrate for TAK1 ([Zhang et al., 2000]). Reaction mixtures were resolved by SDS-polyacrylamide gel electrophoresis, then were analyzed by western blotting and autoradiography.

SMILES | EC50 (iCell cardiomyocytes) [nM] | Cerep Safety 44 panel (Cerep Safety 44 panel) | EC50 (vCor.4U hiPSC-CMs; Homo sapiens, calcium cycling, menadione, vCor.4U, read-out: concentration preserving ∼50% of peak area and peak height) [nM] | duration for which protection of calcium cycling was maintained (vCor.4U hiPSC-CMs; menadione present throughout) | spontaneous calcium cycling after hypoxia-reoxygenation (vCor.4U hiPSC-CMs; vCor.4U, 8 hr after hypoxia-reoxygenation, 10 μM) | effect on baseline calcium cycling (vCor.4U hiPSC-CMs; vCor.4U, no menadione) | Cmax [1] [nM] | Vd [1] [L/kg] | clearance [1] [mL/min/kg] | half-life [1] [min] | Cl, DMX-5804 versus F1386-0303 ([1]; ratio) | Cmax, DMX-5804 versus F1386-0303 ([1]; ratio) | Vd, DMX-5804 versus F1386-0303 ([1]; ratio) | t1/2, DMX-5804 versus F1386-0303 ([1]; ratio) | infarct size as a proportion of the area at ischemic risk (infarct size; post-injury treatment (1 h after reperfusion), vehicle 55.1%) [%] | infarct size as a proportion of the area at ischemic risk (infarct size; pre-injury treatment (20 min prior to ischemia), vehicle 48.5%) [%] | glutathione (GSH)-trapping [2] | IC50 (MINK1/MAP4K6) [nM] | IC50 (TNIK/MAP4K7) [nM] | inhibition at 10 µM (endogenous MAP4K4) [%]
COCCOc1ccc(-c2cn(-c3ccccc3)c3nc[nH]c(=O)c23)cc1 [DMX-5804, 5-[4-(2-methoxy-ethoxy)-phenyl]-7-phenyl-3,7-dihydro-pyrrolo[2,3-d]pyrimidin-4-one] | 500 | no off-target effect | 500 to 2000 | up to 96 h | protection was conferred | no effect | 1590 | 1.22 | 41.7 | 36 | 0.47 | 0.49 | 1.16 | 6.00 | 25.6 | 20.9 | no off-target effect | 6.61 | 11 | –
Oc1ncnc2c1c(-c1ccccc1)cn2-c1ccccc1 [F1386-0303, 5,7-diphenyl-7H-pyrrolo[2,3-d]pyrimidin-4-ol] | 5000 | – | – | – | – | – | 3260 | 1.05 | 88.8 | 6 | – | – | – | – | – | – | – | 38 | 93.3 | 70

— article PMC6458995, “MAP4K4 Inhibition Promotes Survival of Human Stem Cell-Derived Cardiomyocytes and Reduces Infarct Size In Vivo” (Cell Stem Cell, 2019)
